# Test results as given in patent US20130295579A1, “METHOD FOR PREPARING INDUCED PLURIPOTENT STEM CELLS AND MEDIUM USED FOR PREPARING INDUCED PLURIPOTENT STEM CELLS” (SHANGHAI INSTITUTE OF MATERIA MEDICA, CHINESE ACADEMY OF …, priority 2010, published 2013).
# “Also recorded” adds a separate entry of the source.
# Key:
# Format in all cases: cell-based
# [1] = tested on: OG2 mouse embryonic fibroblasts; experiment: Four-factor (Oct4, Sox2, Klf4, c-Myc) iPS induction, counting of Oct-GFP+ colonies by fluorescence microscope; settings: four factors; for number of Oct-GFP+ colonies per well: 96-well plate
# Procedure: Retrovirus were produced by transfecting plat-E cells with pMXs retroviral vectors containing the cDNAs of mouse Oct4, Sox2, Klf4 and c-Myc (purchased from Addgene) using Fugene HD (Roche) according to the manufacturer's protocol. After 48 hours, virus-containing supernatants were collected and filtered. The filtered supernatant was supplemented with 8 mg/L of polybrene, and then was used to infect mouse embryonic fibroblasts. The day when adding virus containing supernatants is counted as “day 0”. The fibroblasts infected with the virus were cultured in the mES medium, and iPS colonies were picked from day 14 to the day 18 after infection (four-factor infection experiment) or from day 20 to day 24 after infection (three-factor infection experiment), based on the expression of Oct-GFP and the typical morphology of stem cells.
# (§1) The main method for calculating the reprogramming efficiency is the counting of the Oct-GFP^+ cells, including: 1. Using flow cytometry to determine the percentage of Oct-GFP^+ cells in the cell culture, which were infected with four factors for 10 to 12 days or with three factors for 14 to 16 days, or 2. directly counting the Oct-GFP^+ colonies in the wells by using fluorescence microscope.
# a. Same volumes of the viruses carrying Oct4, Sox2, Klf4 or c-Myc were mixed and added to a total of 180,000 OG2 mouse embryonic fibroblasts in one well of a 6-well plate and cells were cultured in DMEM medium supplemented with 10% fetal bovine serum at 37° C. and 5% CO2. The day of viral infection was counted as “day 0”. On day 2, cells were trypsinized and resuspended in the mES medium, and then seeded at a density of 5,000 cells per well onto a 96-well plate pre-seeded with irradiated mouse embryonic fibroblast feeders. The mES medium supplemented with different concentrations of LiCl (0.6 mM, 1.2 mM, 2.5 mM, 5 mM, 10 mM, 20 mM and 40 mM) were used from day 3. On day 6, the medium was replaced with KSR medium supplemented with different concentrations of LiCl (0.6 mM, 1.2 mM, 2.5 mM, 5 mM, 10 mM, 20 mM and 40 mM). On day 8, the medium was replaced with KSR medium again.
# b. Using the method described in step a, from day 8, Oct-GFP^+ colonies were observed and counted under an inverted fluorescence microscope every day, and pictures were also taken with a fluorescence microscope. FIG. 2A was representative images of wells in the 96-well plate on day 10, in which there were more GFP^+ colonies in 10 mM LiCl treated well than in untreated well. […] On day 8, GFP^+ colony could barely be observed in control wells, while approximately 10 GFP^+ colonies could be observed in 10 mM LiCl treated wells. On day 10, approximately 20 GFP^+ colonies could be observed in 10 mM LiCl treated wells, with induction efficiency 5 to 6 times of that of control wells'.
# [2] = tested on: OG2 mouse embryonic fibroblasts; experiment: Four-factor iPS induction, percentage of Oct-GFP+ cells by flow cytometry; settings: four factors, 10 mM LiCl, day 12, three independent experiments
# Procedure: (§2) Retrovirus were produced by transfecting plat-E cells with pMXs retroviral vectors containing the cDNAs of mouse Oct4, Sox2, Klf4 and c-Myc (purchased from Addgene) using Fugene HD (Roche) according to the manufacturer's protocol. After 48 hours, virus-containing supernatants were collected and filtered. The filtered supernatant was supplemented with 8 mg/L of polybrene, and then was used to infect mouse embryonic fibroblasts. The day when adding virus containing supernatants is counted as “day 0”. […]
# as §1
# (§3) a. […] The day of viral infection was counted as “day 0”. […]
# c. Using the method described in step a, on day 12, cells were trypsinized and percentage of Oct-GFP^+ cells was determined by using flow cytometry. […]
# [3] = tested on: OG2 mouse embryonic fibroblasts; experiment: Three-factor (Oct4, Sox2, Klf4) iPS induction, counting of Oct-GFP+ colonies by fluorescence microscope; settings: three factors, day 14
# Procedure: as §2, §1, §3
# b. Using the method described in step a, from day 12, Oct-GFP^+ colonies were observed and counted under an inverted fluorescence microscope every day, and pictures were also taken with a fluorescence microscope.
# [4] = tested on: OG2 mouse embryonic fibroblasts; experiment: Three-factor iPS induction, percentage of Oct-GFP+ cells by flow cytometry; settings: three factors, 10 mM LiCl, day 16
# Procedure: as §2, §1, §3
# c. Using the method described in step a, on day 16, cells were trypsinized and the percentage of Oct-GFP^+ cells was determined by using flow cytometry.
compound,measurement,setting,value
"[Cl-].[Li+] [LiCl, lithium chloride]",number of Oct-GFP+ colonies per well,"[1]; 10 mM LiCl, day 8 after infection",approximately 10
same,induction efficiency relative to control wells (colony count),"[1]; 10 mM LiCl, day 10",5 to 6 times
same,number of Oct-GFP+ colonies per well,"[1]; 10 mM LiCl, day 10 after infection",approximately 20
same,most effective dose of LiCl (number of positive colonies),[1]; tested 0.6-40 mM,10 mM
same,induction efficiency increase versus wells without treatment (flow cytometry),[2],5 to 6 times
same,induction efficiency of iPS cells versus control groups (colony count),[3]; 5 mM or 10 mM LiCl,enhanced; also recorded: significantly improved
same,induction efficiency increase versus control groups (colony count),[3]; 10 mM LiCl,approximately 7 times
same,increase of percentage of Oct-GFP+ cells versus control groups,[4],approximately 60 times
same,percentage of Oct-GFP+ cells,[4],14.5%
